Measurements reported in patent US20060069132A1, “Azolecarboxamide herbicides” (priority 2004, published 2006).

What was measured:
Surinam grass = test: Test B pre-/postemergence herbicide test; assay type: in vivo, Urochloa decumbens; details: for Surinam Grass plant response rating: postemergence
Summary of the method: (§1)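 Formulation: non-phytotoxic solvent mix with surfactant. Timing: preemergence on seed and postemergence on 2–18 cm plants, applied concurrently. Readout after 13–15 d greenhouse: visual 0–100 control rating against controls.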

pigweed = test: Test B pre-/postemergence herbicide test; assay type: in vivo, Amaranthus retroflexus; details: for Pigweed plant response rating: postemergence
Summary of the method: as §1

redroot pigweed = test: Test A pre-/postemergence herbicide test; assay type: in vivo, Amaranthus retroflexus
Summary of the method: (§2)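 Visual injury rating on a 0–100 scale (0 no effect, 100 complete control) versus untreated controls, about ten days after treatment in greenhouse. Pre: directed soil spray onto seeded sandy loam. Post: spray to runoff on plants 2–10 cm tall at one- to two-leaf stage.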

barnyardgrass [1] = test: Test A pre-/postemergence herbicide test; assay type: in vivo, Echinochloa crus-galli
Summary of the method: as §2

ducksalad = test: Test B flooded paddy test; assay type: in vivo, Heteranthera limosa; details: 1000 g ai/ha, scale 0 to 100 (0 no effect, 100 complete control)
Summary of the method: (§3)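 Formulated test chemicals went onto postemergence plants measuring 2 to 18 cm, at one to four leaves. For the paddy assay, species had reached two leaves. Scoring took place 13–15 days later by eye, relative to untreated plants, using 0 for no effect up to 100 for full control.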

morningglory [2] = test: Test B pre-/postemergence herbicide test; assay type: in vivo, Ipomoea coccinea; details: for Morningglory plant response rating: postemergence
Summary of the method: (§4)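 Plants compared with untreated controls 13–15 days post-treatment and given a visual 0–100 injury score. Applications: preemergence to seeds; postemergence at 1- to 4-leaf (2–18 cm); paddy species flooded, 2-leaf stage. Vehicle non-phytotoxic, surfactant included.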

giant foxtail [3] = test: Test B pre-/postemergence herbicide test; assay type: in vivo, Setaria faberi; details: for Foxtail, Giant plant response rating: postemergence
Summary of the method: as §1

cocklebur = test: Test B pre-/postemergence herbicide test; assay type: in vivo, Xanthium strumarium; details: for Cocklebur plant response rating: postemergence
Summary of the method: as §4

giant foxtail [4] = test: Test A pre-/postemergence herbicide test; assay type: in vivo, Setaria faberi
Summary of the method: as §2

barnyardgrass [5] = test: Test B flooded paddy test; assay type: in vivo, Echinochloa crus-galli; details: 1000 g ai/ha, scale 0 to 100 (0 no effect, 100 complete control)
Summary of the method: as §3

blackgrass = test: Test B postemergence herbicide test; assay type: in vivo, Alopecurus myosuroides; details: postemergence
Summary of the method: as §3

large crabgrass [6] = test: Test A pre-/postemergence herbicide test; assay type: in vivo, Digitaria sanguinalis
Summary of the method: as §2

wheat = test: Test B postemergence herbicide test; assay type: in vivo, Triticum aestivum; set-up: key to Wheat plant response rating: 0 = no effect, 100 = complete control; details: postemergence
Summary of the method: as §3

wild oat = test: Test B postemergence herbicide test; assay type: in vivo, Avena fatua; details: postemergence
Summary of the method: as §3

[7] = test system: small flower umbrella sedge; test: Test B flooded paddy test; assay type: in vivo, Cyperus difformis; details: 1000 g ai/ha, scale 0 to 100 (0 no effect, 100 complete control)
Summary of the method: as §3

velvetleaf [8] = test: Test A pre-/postemergence herbicide test; assay type: in vivo, Abutilon theophrasti
Summary of the method: as §2

lambsquarters = test: Test B pre-/postemergence herbicide test; assay type: in vivo, Chenopodium album; details: for Lambsquarters plant response rating: postemergence
Summary of the method: as §1

barnyardgrass [9] = test: Test B pre-/postemergence herbicide test; assay type: in vivo, Echinochloa crus-galli; details: for Barnyardgrass plant response rating: postemergence
Summary of the method: as §4

corn = test: Test B pre-/postemergence herbicide test; assay type: in vivo, Zea mays; details: for Corn plant response rating: postemergence
Summary of the method: as §1

large crabgrass [10] = test: Test B pre-/postemergence herbicide test; assay type: in vivo, Digitaria sanguinalis; details: for Crabgrass, Large plant response rating: postemergence
Summary of the method: as §1

rice = test: Test B flooded paddy test; assay type: in vivo, Oryza sativa; details: 1000 g ai/ha, scale 0 to 100 (0 no effect, 100 complete control)
Summary of the method: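 Scale 0–100: zero equals no visible effect, 100 complete control, judged by eye relative to controls. Timing: 13 to 15 days in greenhouse post-treatment. Growth stage at spraying: two leaves (paddy) or one to four leaves, 2–18 cm (postemergence).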

morningglory [11] = test: Test A pre-/postemergence herbicide test; assay type: in vivo, Ipomoea spp.
Summary of the method: as §2

velvetleaf [12] = test: Test B pre-/postemergence herbicide test; assay type: in vivo, Abutilon theophrasti; details: for Velvetleaf plant response rating: postemergence
Summary of the method: as §1

[13] = 125 g ai/ha, 0 is no effect, 100 is complete control, preemergence
[14] = 125 g ai/ha, visual rating, scale 0 (no effect) to 100 (complete control)
[15] = 500 g ai/ha, visual rating, 0 = no effect, 100 = complete control, preemergence
[16] = 500 g ai/ha, scale 0 to 100, 0 is no effect, 100 is complete control
[17] = Postemergence, 500 g ai/ha, 0 to 100 scale, 0 no effect, 100 complete control
[18] = Postemergence, 2000 g ai/ha, 0 to 100 scale, 0 no effect, 100 complete control
[19] = Preemergence, 2000 g ai/ha, visual rating, 0 to 100 scale (0 no effect, 100 complete control)
[20] = preemergence, 500 g ai/ha, visual injury, 0 to 100 scale (0 no effect, 100 complete control)

CCOc1ccc(F)c(NC(=O)c2cc(C(C)(C)C)nn2CC)c1 [Compound 348]
40: Blackgrass plant response rating (blackgrass; [16])
20: Blackgrass plant response rating (blackgrass; [14]) | Wheat plant response rating (wheat; [14]) | Wheat plant response rating (wheat; [16]) | Oat, Wild plant response rating (wild oat; [14])
30: Oat, Wild plant response rating (wild oat; [16])
0: Plant response rating (0 to 100 scale), Surinam Grass (Surinam grass; [13]) | Surinam Grass plant response rating (Surinam grass; [14]) | Plant response rating, Surinam Grass (Surinam grass; [15]) | Surinam Grass plant response rating (Surinam grass; [16]) | Plant response rating (0 to 100 scale), Pigweed (pigweed; [13]) | Pigweed plant response rating (pigweed; [14]) | Plant response rating, Pigweed (pigweed; [15]) | Pigweed plant response rating (pigweed; [16]) | Pigweed plant response rating (redroot pigweed; [17]) | Plant response rating, Pigweed (redroot pigweed; [18]) | Pigweed plant response rating (redroot pigweed; [19]) | Pigweed plant response rating (redroot pigweed; [20]) | Barnyardgrass plant response rating (barnyardgrass [1]; [17]) | Plant response rating, Barnyardgrass (barnyardgrass [1]; [18]) | Barnyardgrass plant response rating (barnyardgrass [1]; [19]) | Barnyardgrass plant response rating (barnyardgrass [1]; [20]) | Ducksalad plant response rating (ducksalad) | Plant response rating (0 to 100 scale), Morningglory (morningglory [2]; [13]) | Morningglory plant response rating (morningglory [2]; [14]) | Plant response rating, Morningglory (morningglory [2]; [15]) | Morningglory plant response rating (morningglory [2]; [16]) | Plant response rating (0 to 100 scale), Foxtail, Giant (giant foxtail [3]; [13]) | Foxtail, Giant plant response rating (giant foxtail [3]; [14]) | Plant response rating, Foxtail, Giant (giant foxtail [3]; [15]) | Foxtail, Giant plant response rating (giant foxtail [3]; [16]) | Plant response rating (0 to 100 scale), Cocklebur (cocklebur; [13]) | Cocklebur plant response rating (cocklebur; [14]) | Plant response rating, Cocklebur (cocklebur; [15]) | Cocklebur plant response rating (cocklebur; [16]) | Foxtail, Giant plant response rating (giant foxtail [4]; [17]) | Plant response rating, Foxtail, Giant (giant foxtail [4]; [18]) | Foxtail, Giant plant response rating (giant foxtail [4]; [19]) | Foxtail, Giant plant response rating (giant foxtail [4]; [20]) | Barnyardgrass plant response rating (barnyardgrass [5]) | Crabgrass, Large plant response rating (large crabgrass [6]; [17]) | Plant response rating, Crabgrass, Large (large crabgrass [6]; [18]) | Crabgrass, Large plant response rating (large crabgrass [6]; [19]) | Crabgrass, Large plant response rating (large crabgrass [6]; [20]) | Sedge, Umbrella plant response rating [7] | Velvetleaf plant response rating (velvetleaf [8]; [17]) | Plant response rating, Velvetleaf (velvetleaf [8]; [18]) | Velvetleaf plant response rating (velvetleaf [8]; [19]) | Velvetleaf plant response rating (velvetleaf [8]; [20]) | Plant response rating (0 to 100 scale), Lambsquarters (lambsquarters; [13]) | Lambsquarters plant response rating (lambsquarters; [14]) | Plant response rating, Lambsquarters (lambsquarters; [15]) | Lambsquarters plant response rating (lambsquarters; [16]) | Plant response rating (0 to 100 scale), Barnyardgrass (barnyardgrass [9]; [13]) | Barnyardgrass plant response rating (barnyardgrass [9]; [14]) | Plant response rating, Barnyardgrass (barnyardgrass [9]; [15]) | Barnyardgrass plant response rating (barnyardgrass [9]; [16]) | Plant response rating (0 to 100 scale), Corn (corn; [13]) | Corn plant response rating (corn; [14]) | Plant response rating, Corn (corn; [15]) | Corn plant response rating (corn; [16]) | Plant response rating (0 to 100 scale), Crabgrass, Large (large crabgrass [10]; [13]) | Crabgrass, Large plant response rating (large crabgrass [10]; [14]) | Plant response rating, Crabgrass, Large (large crabgrass [10]; [15]) | Crabgrass, Large plant response rating (large crabgrass [10]; [16]) | Rice plant response rating (rice) | Morningglory plant response rating (morningglory [11]; [17]) | Plant response rating, Morningglory (morningglory [11]; [18]) | Morningglory plant response rating (morningglory [11]; [19]) | Morningglory plant response rating (morningglory [11]; [20]) | Plant response rating (0 to 100 scale), Velvetleaf (velvetleaf [12]; [13]) | Velvetleaf plant response rating (velvetleaf [12]; [14]) | Velvetleaf plant response rating (velvetleaf [12]; [16])
